The values that follow come from patent US10004732B2 (Novartis AG, priority 2014, dated 2018).

What is called IC50 is the concentration at which inhibition is half-maximal.

The target of one data set is PI 4-kinase beta (Homo sapiens, UniProt Q9UBF8). Briefly: Kinase Glo Luminescent Kinase Assay (Kglo), assay D. The data set is classed as biochemical. Particulars: read-out: Assay D PI4Kβ IC50.
A short description of data set [1]: Microsomal clearance assay (M). Particulars: intrinsic clearance in rat liver microsomes. (In general: Microsomes from liver hold many membrane-bound enzymes, among them those of drug oxidation.)
Method: The experiments were performed in 96-well glass plates at 37° C. on an automated Tecan EVO platform. Test compounds at a concentration of 10 mM in pure DMSO were diluted 1:1000 in water to 10 μM. […] Reactions were initiated by the addition of 150 μL of a cofactor solution containing 2 mM NADPH.
In the next data set the target is PI 3-kinase gamma (Homo sapiens, UniProt P48736). The data set can be described thus: TR-FRET Adapta assay, assay E. The class given is biochemical. Particulars: read-out: Assay E PI3Kγ IC50. In general terms: In TR-FRET formats the signal depends on donor and acceptor labels being close together.
For a further data set, the target named is PI 3-kinase alpha (Homo sapiens, UniProt P42336). Briefly: Kinase Glo Luminescent Kinase Assay (Kglo), assay A. The class given is biochemical. The conditions noted are these: read-out: Assay A PI3Kα IC50. On the technique in general: Kinase-Glo measures the ATP left after a reaction by luminescence.
The test system of data set [2] is IL-8-induced neutrophil shape change in human whole blood. Briefly: Whole blood neutrophil shape change assay (L). The class given is cell-based. The conditions noted are these: IL-8, human whole blood, read-out: Assay L WBSC IC50.
A further data set concerns the target Vps34 (Homo sapiens, UniProt Q8NEB9). The data set can be described thus: Kinase Glo Luminescent Kinase Assay (Kglo), assay C. The data set is classed as biochemical. The conditions noted are these: read-out: Assay C VPS34 IC50.
Another data set concerns the target PI 3-kinase delta (Homo sapiens, UniProt O00329). Briefly: TR-FRET Adapta assay, assay F. Particulars: read-out: Assay F PI3Kδ IC50.
A further data set concerns the target mTOR (Homo sapiens, UniProt P42345). Briefly: Lanthascreen kinase binding assay, assay G. Particulars: read-out: Assay G mTOR IC50.
A further data set has as its target PI 3-kinase beta (Homo sapiens, UniProt P42338). The data set can be described thus: Kinase Glo Luminescent Kinase Assay (Kglo), assay B. The data set is classed as biochemical. The conditions noted are these: read-out: Assay B PI3Kβ IC50.

Like-named read-outs stand apart in the source and are kept apart here.

PI 3-kinase alpha, sequence (P42336 whole entry): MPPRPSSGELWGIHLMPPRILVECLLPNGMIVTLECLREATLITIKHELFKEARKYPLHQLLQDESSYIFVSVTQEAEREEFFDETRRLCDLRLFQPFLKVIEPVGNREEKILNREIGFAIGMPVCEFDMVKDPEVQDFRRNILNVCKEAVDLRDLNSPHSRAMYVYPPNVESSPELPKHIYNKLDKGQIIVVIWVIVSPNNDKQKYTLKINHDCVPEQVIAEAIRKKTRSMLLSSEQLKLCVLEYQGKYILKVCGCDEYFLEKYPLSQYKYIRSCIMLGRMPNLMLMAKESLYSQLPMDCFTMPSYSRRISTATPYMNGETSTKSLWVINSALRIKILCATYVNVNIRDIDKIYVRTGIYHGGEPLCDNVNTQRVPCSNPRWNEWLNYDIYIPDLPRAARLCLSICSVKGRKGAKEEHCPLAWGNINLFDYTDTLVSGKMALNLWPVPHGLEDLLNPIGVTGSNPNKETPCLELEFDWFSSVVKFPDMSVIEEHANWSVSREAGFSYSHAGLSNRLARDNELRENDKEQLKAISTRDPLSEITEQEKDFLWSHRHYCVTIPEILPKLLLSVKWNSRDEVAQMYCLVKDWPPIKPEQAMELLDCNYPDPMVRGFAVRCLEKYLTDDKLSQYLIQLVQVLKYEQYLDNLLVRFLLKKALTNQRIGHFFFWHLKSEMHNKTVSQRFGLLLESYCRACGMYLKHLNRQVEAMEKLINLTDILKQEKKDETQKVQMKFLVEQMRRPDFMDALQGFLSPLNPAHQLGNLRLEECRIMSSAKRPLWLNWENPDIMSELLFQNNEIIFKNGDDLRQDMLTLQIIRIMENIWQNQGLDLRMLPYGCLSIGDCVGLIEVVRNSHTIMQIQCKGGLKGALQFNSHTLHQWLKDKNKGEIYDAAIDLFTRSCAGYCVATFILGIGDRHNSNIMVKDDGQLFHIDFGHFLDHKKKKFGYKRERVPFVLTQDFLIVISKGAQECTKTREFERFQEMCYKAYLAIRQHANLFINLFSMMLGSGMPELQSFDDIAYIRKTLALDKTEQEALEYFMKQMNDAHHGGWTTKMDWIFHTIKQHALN
PI 3-kinase delta, sequence (O00329 whole entry): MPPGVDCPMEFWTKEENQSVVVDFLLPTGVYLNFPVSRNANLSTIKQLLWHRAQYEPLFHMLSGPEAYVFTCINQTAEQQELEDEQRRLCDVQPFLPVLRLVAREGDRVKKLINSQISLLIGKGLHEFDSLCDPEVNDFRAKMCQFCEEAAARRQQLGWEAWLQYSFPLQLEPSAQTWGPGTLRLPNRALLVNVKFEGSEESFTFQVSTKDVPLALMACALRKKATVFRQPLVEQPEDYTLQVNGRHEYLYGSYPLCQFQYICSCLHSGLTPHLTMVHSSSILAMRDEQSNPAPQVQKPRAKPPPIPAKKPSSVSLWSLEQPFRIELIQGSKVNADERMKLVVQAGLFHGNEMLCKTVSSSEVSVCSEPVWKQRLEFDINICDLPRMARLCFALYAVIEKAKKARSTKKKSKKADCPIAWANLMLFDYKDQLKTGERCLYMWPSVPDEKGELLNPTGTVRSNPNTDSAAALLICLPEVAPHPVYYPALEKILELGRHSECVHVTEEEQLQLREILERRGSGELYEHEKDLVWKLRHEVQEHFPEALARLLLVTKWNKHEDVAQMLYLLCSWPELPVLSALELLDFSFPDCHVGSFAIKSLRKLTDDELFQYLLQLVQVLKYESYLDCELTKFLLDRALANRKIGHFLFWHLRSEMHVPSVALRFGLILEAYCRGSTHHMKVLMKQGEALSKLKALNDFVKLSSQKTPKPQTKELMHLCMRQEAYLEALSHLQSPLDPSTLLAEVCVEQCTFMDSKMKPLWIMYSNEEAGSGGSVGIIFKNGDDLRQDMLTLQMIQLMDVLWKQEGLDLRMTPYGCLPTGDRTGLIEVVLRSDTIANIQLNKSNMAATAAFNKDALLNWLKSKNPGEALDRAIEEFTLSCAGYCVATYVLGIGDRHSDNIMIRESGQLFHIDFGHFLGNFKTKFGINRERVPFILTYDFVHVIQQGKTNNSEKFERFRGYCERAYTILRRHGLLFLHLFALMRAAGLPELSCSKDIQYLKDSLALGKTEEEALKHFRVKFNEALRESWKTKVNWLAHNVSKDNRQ
PI 3-kinase delta, sequence (P27986 461-568 partner): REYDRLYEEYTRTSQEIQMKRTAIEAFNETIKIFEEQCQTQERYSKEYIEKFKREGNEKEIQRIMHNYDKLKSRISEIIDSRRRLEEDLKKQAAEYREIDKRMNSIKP
PI 3-kinase beta, sequence (P42338 whole entry): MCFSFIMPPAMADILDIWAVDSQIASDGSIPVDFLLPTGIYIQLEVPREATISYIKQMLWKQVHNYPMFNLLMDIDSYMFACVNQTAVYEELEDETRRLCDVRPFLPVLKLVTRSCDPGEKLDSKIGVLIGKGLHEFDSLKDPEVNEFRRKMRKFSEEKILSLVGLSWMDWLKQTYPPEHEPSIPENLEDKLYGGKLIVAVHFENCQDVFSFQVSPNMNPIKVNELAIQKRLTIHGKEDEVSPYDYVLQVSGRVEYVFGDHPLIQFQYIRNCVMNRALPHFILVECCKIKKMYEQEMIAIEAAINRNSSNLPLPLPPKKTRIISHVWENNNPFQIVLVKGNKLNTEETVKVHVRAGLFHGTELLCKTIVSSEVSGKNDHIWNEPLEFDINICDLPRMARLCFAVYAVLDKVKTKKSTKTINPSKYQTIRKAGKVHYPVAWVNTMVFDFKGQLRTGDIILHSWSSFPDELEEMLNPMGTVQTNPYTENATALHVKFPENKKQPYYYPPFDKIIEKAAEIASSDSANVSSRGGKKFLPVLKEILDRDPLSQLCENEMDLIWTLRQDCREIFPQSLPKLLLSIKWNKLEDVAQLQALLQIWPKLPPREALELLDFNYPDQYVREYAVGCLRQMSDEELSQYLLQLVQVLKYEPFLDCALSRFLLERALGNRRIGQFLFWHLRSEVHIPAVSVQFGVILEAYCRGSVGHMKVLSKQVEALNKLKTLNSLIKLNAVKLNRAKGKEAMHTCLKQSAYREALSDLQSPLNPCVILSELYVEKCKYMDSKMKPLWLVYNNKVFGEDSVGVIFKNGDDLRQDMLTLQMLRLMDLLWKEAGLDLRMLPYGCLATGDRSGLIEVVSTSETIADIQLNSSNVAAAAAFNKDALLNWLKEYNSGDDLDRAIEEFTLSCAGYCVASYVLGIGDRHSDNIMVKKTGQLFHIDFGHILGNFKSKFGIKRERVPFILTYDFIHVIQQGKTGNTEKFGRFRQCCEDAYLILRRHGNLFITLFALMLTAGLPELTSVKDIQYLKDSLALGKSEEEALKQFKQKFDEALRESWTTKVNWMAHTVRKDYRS
PI 3-kinase beta, sequence (P27986 461-568 partner): as the sequence (P27986 461-568 partner) above
PI 4-kinase beta, sequence (Q9UBF8 whole entry): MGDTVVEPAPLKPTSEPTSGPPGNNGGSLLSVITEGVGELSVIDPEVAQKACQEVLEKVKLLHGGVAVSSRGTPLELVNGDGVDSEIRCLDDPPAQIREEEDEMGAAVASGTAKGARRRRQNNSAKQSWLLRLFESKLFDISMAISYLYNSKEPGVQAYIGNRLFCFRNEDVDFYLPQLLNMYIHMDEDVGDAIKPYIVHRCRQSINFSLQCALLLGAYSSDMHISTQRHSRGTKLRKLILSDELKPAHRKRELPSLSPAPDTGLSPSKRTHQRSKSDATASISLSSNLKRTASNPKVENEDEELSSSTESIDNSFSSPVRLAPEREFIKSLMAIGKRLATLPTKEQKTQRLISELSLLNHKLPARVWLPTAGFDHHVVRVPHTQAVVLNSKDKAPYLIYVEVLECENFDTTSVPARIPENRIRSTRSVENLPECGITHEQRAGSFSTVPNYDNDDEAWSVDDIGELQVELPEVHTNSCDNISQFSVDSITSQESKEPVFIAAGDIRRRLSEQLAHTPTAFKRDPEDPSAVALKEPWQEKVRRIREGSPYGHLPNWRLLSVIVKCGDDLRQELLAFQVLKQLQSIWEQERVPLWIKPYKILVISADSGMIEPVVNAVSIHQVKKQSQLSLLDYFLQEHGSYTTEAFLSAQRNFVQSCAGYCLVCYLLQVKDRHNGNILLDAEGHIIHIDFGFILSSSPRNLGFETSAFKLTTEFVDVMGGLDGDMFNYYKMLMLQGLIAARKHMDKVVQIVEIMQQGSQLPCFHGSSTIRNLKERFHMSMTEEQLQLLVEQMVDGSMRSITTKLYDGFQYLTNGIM
Vps34, sequence (Q8NEB9 whole entry, species assumed): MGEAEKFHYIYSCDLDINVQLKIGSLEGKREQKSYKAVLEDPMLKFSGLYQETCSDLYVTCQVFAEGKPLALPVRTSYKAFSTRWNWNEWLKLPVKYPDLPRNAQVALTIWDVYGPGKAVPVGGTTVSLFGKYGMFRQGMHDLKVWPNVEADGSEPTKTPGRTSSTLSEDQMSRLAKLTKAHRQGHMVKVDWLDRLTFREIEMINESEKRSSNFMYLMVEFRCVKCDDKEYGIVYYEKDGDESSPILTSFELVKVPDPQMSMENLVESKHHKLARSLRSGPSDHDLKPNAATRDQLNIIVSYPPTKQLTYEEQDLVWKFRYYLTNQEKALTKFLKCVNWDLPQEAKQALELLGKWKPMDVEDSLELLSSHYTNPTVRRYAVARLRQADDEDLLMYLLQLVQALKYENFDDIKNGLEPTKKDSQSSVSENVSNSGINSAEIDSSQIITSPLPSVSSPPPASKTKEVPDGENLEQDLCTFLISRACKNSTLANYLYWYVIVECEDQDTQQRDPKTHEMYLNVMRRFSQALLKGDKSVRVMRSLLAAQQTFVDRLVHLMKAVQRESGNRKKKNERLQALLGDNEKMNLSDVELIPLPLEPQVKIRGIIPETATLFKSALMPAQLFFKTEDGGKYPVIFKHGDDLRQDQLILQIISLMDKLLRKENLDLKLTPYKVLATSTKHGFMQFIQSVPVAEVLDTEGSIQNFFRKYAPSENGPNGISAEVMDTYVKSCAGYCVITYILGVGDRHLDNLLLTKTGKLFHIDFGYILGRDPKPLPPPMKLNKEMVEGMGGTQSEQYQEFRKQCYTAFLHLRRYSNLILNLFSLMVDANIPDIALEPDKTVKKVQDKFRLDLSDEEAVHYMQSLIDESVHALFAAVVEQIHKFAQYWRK
Method for mTOR: Lanthascreen™ Kinase Binding Assay for mTOR (G)
Binding of an inhibitor to the kinase competes for binding with the tracer, resulting in a loss of FRET.
50 nL of compound dilutions were dispensed onto white 384-well small volume polystyrene plate.

Consider `Cc1ccc(S(=O)(=O)NCC[C@@H](O)C(F)(F)F)cc1-c1cnc(N)c(-c2cn(C)nc2C)n1` (single isomer, unassigned) [Example 52a, (R)-3-(5-Amino-6-(1,3-dimethyl-1H-pyrazol-4-yl)pyrazin-2-yl)-4-methyl-N-(4,4,4-trifluoro-3-hydroxybutyl)benzenesulfonamide or (S)-3-(5-Amino-6-(1,3-dimethyl-1H-pyrazol-4-yl)pyrazin-2-yl)-4-methyl-N-(4,4,4-trifluoro-3-hydroxybutyl)benzenesulfonamide], for which the IC50 at PI 4-kinase beta was 5.5 µM; at PI 3-kinase gamma, 0.016 µM; on PI 3-kinase alpha, 0.17 µM; in data set [2], 0.806 µM; at Vps34, over 10 µM. The “Assay M RLM CI(int)” value in data set [1] amounted to 60 µL/min/mg.

With `Cc1ccc(S(=O)(=O)NCC(C)(C)O)cc1-c1cnc(N)c(-c2cnn(C)c2)n1` [Example 46.2, 3-(5-Amino-6-(1-methyl-1H-pyrazol-4-yl)pyrazin-2-yl)-N-(2-hydroxy-2-methylpropyl)-4-methylbenzenesulfonamide], the 50% inhibitory concentration (IC50) at PI 3-kinase delta was found to be 0.73 µM; at PI 4-kinase beta, 6.2 µM; at mTOR it was 9.7 µM; at PI 3-kinase gamma, 0.054 µM; on PI 3-kinase alpha it was 0.48 µM; in [2] (Homo sapiens, Neutrophil), 0.597 µM. For the same compound, the figures for the IC50 on Vps34 and on PI 3-kinase beta were over 10 µM and 2 µM, respectively. The “Assay M RLM CI(int)” value in data set [1] is 49 µL/min/mg.

In the case of `Cc1cc(-c2nc(-c3cc(S(=O)(=O)NCC4(O)CCC4)ccc3C)cnc2N)ccn1` [Example 129.5, 3-(5-amino-6-(2-methylpyridin-4-yl)pyrazin-2-yl)-N-((1-hydroxycyclobutyl)methyl)-4-methylbenzenesulfonamide], the IC50 on PI 3-kinase delta is 0.57 µM; at PI 4-kinase beta, 5 µM; on mTOR it was 6.5 µM; at PI 3-kinase gamma it was 0.038 µM; at PI 3-kinase alpha it was 0.27 µM; in data set [2] (Homo sapiens, Neutrophil), 1.17 µM. Further, the half-maximal inhibitory concentration (IC50) at Vps34 and at PI 3-kinase beta was over 9.1 µM in each case. For the same compound, the “Assay M RLM CI(int)” value in data set [1] is 79 µL/min/mg.

In the case of `Cc1ccc(S(=O)(=O)NCC(C)(C)O)cc1-c1cnc(N)c(-n2cc(C)c(C)n2)n1` [Example 47, 3-(5-Amino-6-(3,4-dimethyl-1H-pyrazol-1-yl)pyrazin-2-yl)-N-(2-hydroxy-2-methylpropyl)-4-methyl benzenesulfonamide], the IC50 was 0.53 µM at PI 3-kinase delta; 8.7 µM on PI 4-kinase beta; over 10 µM at mTOR; 0.049 µM at PI 3-kinase gamma; 0.33 µM at PI 3-kinase alpha; 3.14 µM in data set [2] (Homo sapiens, Neutrophil). The IC50 on Vps34 was over 10 µM; on PI 3-kinase beta it was 6 µM. Moreover, the “Assay M RLM CI(int)” value in data set [1] was 140 µL/min/mg.

Take `Cc1ccc(S(=O)(=O)NCC(C)(C)O)cc1-c1cnc(N)c(-c2nc(C(C)C)no2)n1` [Example 97, 3-(5-Amino-6-(3-isopropyl-1,2,4-oxadiazol-5-yl)pyrazin-2-yl)-N-(2-hydroxy-2-methylpropyl)-4-methylbenzenesulfonamide]: the half-inhibitory concentration (IC50) on PI 4-kinase beta was over 10 µM; at mTOR, over 10 µM; in [2] (Homo sapiens, Neutrophil), 2.15 µM; on Vps34, over 10 µM. Moreover, the “Assay M RLM CI(int)” value in data set [1] amounted to 60 µL/min/mg.

Turning to `Cc1cc(-c2nc(-c3cc(S(=O)(=O)NCCC(C)(C)O)ccc3C)cnc2N)on1` [Example 89, 3-(5-Amino-6-(3-methylisoxazol-5-yl)pyrazin-2-yl)-N-(3-hydroxy-3-methylbutyl)-4-methylbenzenesulfonamide], the IC50 at PI 3-kinase delta is 0.84 µM; on PI 4-kinase beta it was 7 µM; at mTOR, over 10 µM; at PI 3-kinase alpha it was 0.42 µM; in data set [2] (Homo sapiens, Neutrophil), 3.7 µM; on Vps34 it was 3.4 µM. Also, the IC50 on PI 3-kinase beta worked out at 1.3 µM. Further, the “Assay M RLM CI(int)” value in data set [1] was determined as 46 µL/min/mg.

Consider `Cc1ncc(-c2nc(-c3cc(S(=O)(=O)NCC4COC4)ccc3C)cnc2N)s1` [Example 45.1, 3-(5-Amino-6-(2-methylthiazol-5-yl)pyrazin-2-yl)-4-methyl-N-(oxetan-3-ylmethyl)benzenesulfonamide], for which the IC50 at PI 3-kinase delta was found to be 0.08 µM; at PI 4-kinase beta it was 3 µM; on PI 3-kinase gamma it was 0.011 µM; on PI 3-kinase alpha, 0.05 µM; in data set [2] (Homo sapiens, Neutrophil), 0.306 µM; on Vps34, 1.9 µM. For the same compound, the IC50 on PI 3-kinase beta was found to be 0.2 µM. Further, the “Assay M RLM CI(int)” value in [1] is 70 µL/min/mg.

As to `Cc1ccc(S(=O)(=O)NCC2(O)CCOCC2)cc1-c1cnc(N)c(-n2cncn2)n1` [Example 32, 3-(5-Amino-6-[1,2,4]triazol-1-yl-pyrazin-2-yl)-N-(4-hydroxy-tetrahydropyran-4-ylmethyl)-4-methylbenzenesulfonamide], the IC50 on PI 4-kinase beta is 4.05 µM; on mTOR, over 10 µM; in [2] (Homo sapiens, Neutrophil), 0.668 µM; at Vps34, over 10 µM. In data set [1], the “Assay M RLM CI(int)” value is 28 µL/min/mg.

In the case of `Cc1ccc(S(=O)(=O)NCC2(O)CCC2)cc1-c1cnc(N)c(-n2cncn2)n1` [Example 127.16], the IC50 on PI 3-kinase delta turned out to be 1.1 µM; at PI 4-kinase beta it was 5 µM; on mTOR, 8.7 µM; at PI 3-kinase gamma, 0.045 µM; on PI 3-kinase alpha, 0.33 µM; in data set [2] (Homo sapiens, Neutrophil), 1.73 µM. The 50% inhibitory concentration (IC50) on Vps34 was over 10 µM; on PI 3-kinase beta, 0.81 µM.

Turning to `Cc1ccc(S(=O)(=O)NC2CC(F)(F)C2)cc1-c1cnc(N)c(-n2cncn2)n1` [Example 127.7], the concentration for half-maximal inhibition (IC50) was 1.1 µM at PI 3-kinase delta; 6.3 µM at PI 4-kinase beta; 1.5 µM at mTOR; 0.04 µM on PI 3-kinase gamma; 0.26 µM on PI 3-kinase alpha; 3.99 µM in data set [2] (Homo sapiens, Neutrophil). For the same compound, the IC50 was over 10 µM at Vps34 and 1.3 µM at PI 3-kinase beta.

Regarding `Cc1ccc(S(=O)(=O)NC2CCC2)cc1-c1cnc(N)c(-n2cncn2)n1` [Example 127.54], the concentration for half-maximal inhibition (IC50) was 1.1 µM on PI 3-kinase delta; 2.6 µM on PI 4-kinase beta; 1.8 µM on mTOR; 0.032 µM on PI 3-kinase gamma; 0.18 µM on PI 3-kinase alpha; over 100 µM in data set [2] (Homo sapiens, Neutrophil). In addition, the 50% inhibitory concentration (IC50) is over 10 µM at Vps34 and 1.1 µM at PI 3-kinase beta.

As for `Cc1cc(-c2nc(-c3cc(S(=O)(=O)NC4CCN(C(C)C)CC4)ccc3C)cnc2N)ccn1` [Example 129.21, 3-(5-amino-6-(2-methylpyridin-4-yl)pyrazin-2-yl)-N-(1-isopropylpiperidin-4-yl)-4-methylbenzenesulfonamide], the IC50 on PI 3-kinase delta was 1 µM; at PI 4-kinase beta, over 9.1 µM; at mTOR it was over 9.1 µM; at PI 3-kinase gamma, 0.053 µM; on PI 3-kinase alpha it was 2.9 µM; in data set [2] (Homo sapiens, Neutrophil), 8.95 µM. Besides, the IC50 on Vps34 and on PI 3-kinase beta was over 9.1 µM each time.

On to `CCN1CCC[C@@H]1CNS(=O)(=O)c1ccc(C)c(-c2cnc(N)c(-c3ccnc(C)c3)n2)c1` [Example 129.25, (R)-3-(5-amino-6-(2-methylpyridin-4-yl)pyrazin-2-yl)-N-((1-ethylpyrrolidin-2-yl)methyl)-4-methylbenzenesulfonamide], for which the half-maximal inhibitory concentration (IC50) on PI 3-kinase delta is 0.38 µM; on PI 4-kinase beta it was over 9.1 µM; at mTOR it was over 9.1 µM; at PI 3-kinase gamma it was 0.042 µM; on PI 3-kinase alpha, 0.54 µM; in data set [2] (Homo sapiens, Neutrophil) it was 2.95 µM. Further, the IC50 is over 9.1 µM on Vps34 and 2.3 µM at PI 3-kinase beta.
